# From ChEMBL document CHEMBL1201862, “PubChem BioAssay data set” (2004)
# Calls of active or inactive are those of the source.
# Experiments:
# Paired box protein Pax-8 = Paired box protein Pax-8 (Homo sapiens, UniProt Q06710); experiment: inhibitors of PAX8-driven TPO luciferase reporter, dose response, RMG-I cells, cherry-pick (AID 687027); format: functional, cell-based;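 also: luciferase reporter driven by Pax8 target thyroperoxidase promoter measured by SteadyGlo luminescence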
# [1] = A549 cell cytotoxicity, dose response, cytotoxicity control, plate reader, cherry-pick, antagonist series (AID 743412); format: functional, cell-based
# [2] = HepG2 cell cytotoxicity, dose response, cytotoxicity control, plate reader, cherry-pick, antagonist series (AID 743416); format: functional, cell-based
# [3] = LGR2 antagonists, dose response, cell-based, HEK293, CRE-luciferase reporter, cherry pick, set 2 (AID 743343); format: functional;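 also: transfected cells were stimulated with diluted bursicon conditioned medium after compound addition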
# [4] = non-specific cell cytotoxicity, dose response, cytotoxicity control for PAX8 inhibitor project, plate reader, dry powder samples (AID 743021); format: functional, cell-based
# [5] = MC4R antagonists, dose response, counter-screen for LGR2 antagonist project, cell-based, plate reader, cherry pick (AID 743444); format: functional;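 also: transfected HEK 293 cells stimulated with alpha-MSH peptide; potency of inhibitors of the alpha-MSH evoked signal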
# [6] = HEK293 cell cytotoxicity, dose response, cytotoxicity control, plate reader, cherry-picked samples (AID 743446); format: functional, cell-based
# [7] = biological target: Luciferin 4-monooxygenase (Photinus pyralis, UniProt P08659); experiment: firefly luciferase enzyme inhibitors, dose response, biochemical, luminescence (AID 1891)
# Sequence of Luciferin 4-monooxygenase (P08659 whole entry): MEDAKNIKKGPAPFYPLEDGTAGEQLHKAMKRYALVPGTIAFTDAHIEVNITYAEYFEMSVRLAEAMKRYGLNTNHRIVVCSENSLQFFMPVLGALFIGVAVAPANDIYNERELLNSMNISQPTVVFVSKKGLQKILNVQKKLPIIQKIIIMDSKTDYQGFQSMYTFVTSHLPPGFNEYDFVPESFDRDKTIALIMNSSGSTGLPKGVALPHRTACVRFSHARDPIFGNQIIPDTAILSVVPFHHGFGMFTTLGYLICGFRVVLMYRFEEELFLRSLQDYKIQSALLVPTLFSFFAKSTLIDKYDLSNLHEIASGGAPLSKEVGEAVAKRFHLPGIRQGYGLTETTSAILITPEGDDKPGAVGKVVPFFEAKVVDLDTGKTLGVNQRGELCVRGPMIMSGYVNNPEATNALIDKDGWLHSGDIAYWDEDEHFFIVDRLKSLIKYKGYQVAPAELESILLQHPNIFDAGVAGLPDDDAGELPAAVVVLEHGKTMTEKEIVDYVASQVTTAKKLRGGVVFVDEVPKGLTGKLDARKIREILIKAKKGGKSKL
# [8] = Luminescence Cell-Based Dose Confirmation HTS to Identify Inhibitors of Platelet Dense Granule Release. [Related pubchem assays: 1663 (Primary HTS), 1678 (Summary of Project)]; format: functional
# [9] = biological target: T1, Microphthalmia-associated transcription factor (Homo sapiens, UniProt O75030); experiment: TRPM1 promoter luciferase signal decrease, dose response, MITF inhibitor project, cell-based, SK-MEL-5, cherry-picked, set 3 (AID 493073); format: functional
# T1 sequence (O75030 whole entry): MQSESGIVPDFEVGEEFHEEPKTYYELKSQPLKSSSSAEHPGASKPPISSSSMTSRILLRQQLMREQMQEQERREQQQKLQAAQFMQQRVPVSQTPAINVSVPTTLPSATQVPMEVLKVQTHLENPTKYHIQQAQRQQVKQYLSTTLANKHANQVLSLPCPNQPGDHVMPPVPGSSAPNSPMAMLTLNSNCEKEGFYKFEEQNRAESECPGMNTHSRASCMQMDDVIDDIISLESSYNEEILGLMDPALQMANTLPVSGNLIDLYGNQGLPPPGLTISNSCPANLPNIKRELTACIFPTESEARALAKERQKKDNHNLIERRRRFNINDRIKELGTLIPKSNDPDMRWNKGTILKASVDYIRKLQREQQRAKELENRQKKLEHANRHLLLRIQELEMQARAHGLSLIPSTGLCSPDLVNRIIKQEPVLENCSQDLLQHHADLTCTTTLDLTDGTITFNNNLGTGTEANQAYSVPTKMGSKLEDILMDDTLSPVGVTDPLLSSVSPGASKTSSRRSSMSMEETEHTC
# [10] = inhibitors of HIV Env-driven cell fusion, dose response, cherry-pick (AID 652057); format: functional, cell-based
# [11] = CEM21 lymphoblast cell cytotoxicity, dose response, cytotoxicity control for viral fusion inhibitor project, CellTiter-Glo luminescence, cherry-picked (AID 652042); format: functional, cell-based;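 also: potency for signal decrease meaning cytotoxicity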
# [12] = ZM109 Env clade C HIV-1 fusion inhibitors, dose response, HeLa effector, CEM target cells, luciferase, cherry-pick (AID 652058); format: functional, cell-based
# [13] = off-target signal loss in HeLa-CEM21 co-culture – HeLa F-luc CTL cells, cherry-picked, counter-screen for HIV-1 Env fusion inhibitor project, dose response (AID 652040); format: functional, cell-based;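 also: potency for signal decrease marking cytotoxic or nonspecific inhibition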
# [14] = inhibitors of clade B AD8 Env fusion, dose response, cell-based, cherry-pick (AID 652062); format: functional;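 also: luciferase signal from cell-cell fusion driven by HIV-1 clade B AD8 Env; potency is for inhibitors of fusion seen as a drop in luminescence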
# [15] = biological target: T2, Methionyl-tRNA synthetase, putative (Trypanosoma brucei brucei, UniProt Q38C91); format: functional, Trypanosoma brucei brucei strain 927/4 GUTat10.1
# T2 sequence (Q38C91 whole entry): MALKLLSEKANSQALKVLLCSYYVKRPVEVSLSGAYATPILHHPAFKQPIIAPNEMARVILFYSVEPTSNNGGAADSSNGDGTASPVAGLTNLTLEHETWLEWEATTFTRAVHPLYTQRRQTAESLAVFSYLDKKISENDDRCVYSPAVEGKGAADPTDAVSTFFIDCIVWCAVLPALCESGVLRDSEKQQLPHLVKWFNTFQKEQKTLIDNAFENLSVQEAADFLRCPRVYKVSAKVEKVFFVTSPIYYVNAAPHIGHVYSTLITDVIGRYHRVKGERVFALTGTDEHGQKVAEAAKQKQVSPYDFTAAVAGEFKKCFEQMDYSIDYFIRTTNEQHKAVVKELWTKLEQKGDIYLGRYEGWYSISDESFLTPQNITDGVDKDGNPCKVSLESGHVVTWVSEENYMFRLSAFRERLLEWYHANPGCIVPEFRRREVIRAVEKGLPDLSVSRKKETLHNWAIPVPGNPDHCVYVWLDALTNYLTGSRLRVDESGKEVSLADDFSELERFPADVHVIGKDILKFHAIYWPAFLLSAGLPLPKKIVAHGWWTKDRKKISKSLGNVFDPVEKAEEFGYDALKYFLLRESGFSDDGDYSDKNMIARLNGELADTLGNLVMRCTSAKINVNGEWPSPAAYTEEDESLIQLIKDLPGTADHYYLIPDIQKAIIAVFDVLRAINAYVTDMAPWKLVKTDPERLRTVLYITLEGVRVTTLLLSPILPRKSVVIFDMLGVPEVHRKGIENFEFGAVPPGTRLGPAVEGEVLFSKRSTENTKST
# [16] = Counterscreen for inhibitors of Trypanosoma brucei methionyl tRNA synthetase (MetRS): Luminescence-based cell-based high throughput dose response assay to identify compounds that are cytotoxic to Jurkat human T lymphocyte cells.; format: functional
# [17] = biological target: T2, Methionyl-tRNA synthetase, putative; format: functional, Trypanosoma brucei brucei strain 927/4 GUTat10.1; remark: listed apart in the source
# [18] = biological target: T3, Oxysterols receptor LXR-beta (Homo sapiens, UniProt P55055); format: functional, cell-based;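 also: Cell-based luminescence dose-response assay of agonist activity at LXR, run as a confirmatory counterscreen to a daf-12 agonist screen; HEK293 cells with Gal4-LXR fusion and GAL4-driven luciferase reporter; agonist potency from rising luciferase signal of a Gal4-LXR reporter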
# T3 sequence (P55055 whole entry): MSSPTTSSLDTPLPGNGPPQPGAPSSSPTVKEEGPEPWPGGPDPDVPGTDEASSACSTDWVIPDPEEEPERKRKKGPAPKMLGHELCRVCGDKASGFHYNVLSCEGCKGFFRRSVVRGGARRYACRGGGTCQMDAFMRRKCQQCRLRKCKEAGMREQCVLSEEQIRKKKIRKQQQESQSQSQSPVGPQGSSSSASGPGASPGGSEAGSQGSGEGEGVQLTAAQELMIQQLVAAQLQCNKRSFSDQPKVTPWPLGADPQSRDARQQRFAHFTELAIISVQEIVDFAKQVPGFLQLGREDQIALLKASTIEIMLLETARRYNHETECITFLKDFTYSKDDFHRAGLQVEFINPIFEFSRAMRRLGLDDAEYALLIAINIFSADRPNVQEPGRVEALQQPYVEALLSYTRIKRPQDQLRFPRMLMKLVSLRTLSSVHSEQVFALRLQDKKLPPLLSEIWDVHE
# Mu-type opioid receptor = Mu-type opioid receptor (Homo sapiens, UniProt P35372); format: functional, cell-based;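 also: U2OS cells with beta-arrestin recruitment to OPRM1 by beta-gal complementation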
# Sequence of Mu-type opioid receptor (P35372 whole entry): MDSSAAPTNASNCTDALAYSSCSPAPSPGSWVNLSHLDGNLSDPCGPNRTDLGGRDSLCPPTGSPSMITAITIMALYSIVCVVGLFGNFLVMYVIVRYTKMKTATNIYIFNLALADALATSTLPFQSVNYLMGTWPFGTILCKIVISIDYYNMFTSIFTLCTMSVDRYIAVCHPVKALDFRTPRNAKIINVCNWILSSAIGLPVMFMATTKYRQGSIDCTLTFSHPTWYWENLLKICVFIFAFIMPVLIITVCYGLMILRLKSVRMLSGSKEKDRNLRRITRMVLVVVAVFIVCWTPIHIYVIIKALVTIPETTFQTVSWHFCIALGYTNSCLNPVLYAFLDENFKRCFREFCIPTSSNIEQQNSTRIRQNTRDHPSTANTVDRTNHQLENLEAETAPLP
# [19] = biological target: 5-hydroxytryptamine receptor 2A (Mus musculus, UniProt P35363); format: functional, cell-based;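 also: CHO-K1 cells with tagged receptor and beta-arrestin; agonist potency measured as compound-induced activation of the receptor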
# Sequence of 5-hydroxytryptamine receptor 2A (P35363 whole entry): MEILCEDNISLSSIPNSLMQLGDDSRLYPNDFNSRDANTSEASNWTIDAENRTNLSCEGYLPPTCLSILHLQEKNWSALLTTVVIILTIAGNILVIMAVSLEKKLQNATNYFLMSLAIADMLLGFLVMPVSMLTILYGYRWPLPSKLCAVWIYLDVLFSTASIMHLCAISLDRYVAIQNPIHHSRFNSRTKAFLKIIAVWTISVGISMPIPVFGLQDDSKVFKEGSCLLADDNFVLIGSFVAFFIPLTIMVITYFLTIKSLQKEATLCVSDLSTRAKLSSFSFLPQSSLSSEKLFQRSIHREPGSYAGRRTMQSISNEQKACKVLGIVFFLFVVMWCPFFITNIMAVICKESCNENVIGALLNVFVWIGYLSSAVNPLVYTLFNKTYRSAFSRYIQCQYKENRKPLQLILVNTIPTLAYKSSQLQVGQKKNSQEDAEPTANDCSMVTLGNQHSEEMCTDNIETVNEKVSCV
# Sequence of Paired box protein Pax-8 (Q06710 whole entry): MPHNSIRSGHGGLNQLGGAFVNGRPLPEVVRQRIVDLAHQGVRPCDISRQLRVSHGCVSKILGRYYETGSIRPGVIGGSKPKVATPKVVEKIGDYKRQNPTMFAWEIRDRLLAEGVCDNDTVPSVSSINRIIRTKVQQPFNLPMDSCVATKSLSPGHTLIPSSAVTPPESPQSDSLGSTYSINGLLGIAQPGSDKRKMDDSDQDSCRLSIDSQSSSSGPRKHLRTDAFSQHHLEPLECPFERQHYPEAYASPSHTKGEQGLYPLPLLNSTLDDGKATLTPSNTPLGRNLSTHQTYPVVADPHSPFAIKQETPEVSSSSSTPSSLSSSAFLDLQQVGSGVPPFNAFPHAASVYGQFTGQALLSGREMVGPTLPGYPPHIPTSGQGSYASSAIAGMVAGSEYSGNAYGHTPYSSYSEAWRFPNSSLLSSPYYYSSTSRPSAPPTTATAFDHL
structure (smiles),measurement,setting,value
COc1ccccc1-c1ccc(OCCCN2CCC(C(O)(c3ccccc3)c3ccccc3)CC2)cc1,AC50,Paired box protein Pax-8,10.2 µM (active)
same,AC50,[1],5.11 µM (active)
same,AC50,[2],6.44 µM (active)
same,AC50,[3],16.3 µM (active)
same,AC50,[4],28.1 µM (active)
same,AC50,[5],18.1 µM (active)
same,AC50,[6],9.63 µM (active)
O=C(O)c1ccc(N/N=C/c2ccc3nccnc3c2)cc1,EC50,[7],3.43 µM (active)
same,EC50,[8],7.25 µM (active)
same,AC50,[9],0.696 µM (active)
same,AC50,[10],0.685 µM (active)
same,AC50,[11],46.5 µM (active)
same,AC50,[12],6.51 µM (active)
same,AC50,Paired box protein Pax-8,2.07 µM (active)
same,AC50,[13],2.97 µM (active)
same,AC50,[14],2.13 µM (active)
same,AC50,[4],30.5 µM (active)
O=c1c(Cc2ccc(Cl)cc2Cl)c(O)ccn1Cc1ccncc1,IC50,[15],29.2 µM (inactive)
same,IC50,[16],83.2 µM (inactive)
same,IC50,[17],20 µM (inactive)
Cc1ccnc(NC(=S)NC(=O)c2cccs2)c1,EC50,[18],> 67.5 µM (inactive)
same,EC50,cells,> 67.5 µM (inactive)
Fc1ccccc1CN1CCN(c2ncccn2)CC1,EC50,Mu-type opioid receptor,92.5 µM (inactive)
same,EC50,[19],1.26 µM (active)
COc1ccc(CC2(CO)CCN(C(C)COc3ccccc3)CC2)cc1 (stereo unspecified),EC50,Mu-type opioid receptor,92.4 µM (inactive)
same,EC50,[19],0.115 µM (active)
